According to US20170291905A1, “ARGININE […] INHIBITORS AND USES THEREOF” (Epizyme, Inc., priority 2014, published 2017):
Counter-ions that a name gives are not always drawn.

Biological target: T1, PRMT1 (Homo sapiens, UniProt Q99873)
T1 construct: host or cells: RKO cells
Experiment: RKO methylation assay, In Cell Western (ICW) for mono-methyl arginine and DNA content
Assay type: cell-based
Conditions: RKO cells, 72 hours, mono-methyl arginine signal normalised to DRAQ5, percent activation
Text: RKO Methylation Assay RKO adherent cells were purchased from ATCC (American Type Culture Collection), Manassas, Va., USA. DMEM/Glutamax medium, penicillin-streptomycin, heat inactivated fetal bovine serum, 0.05% trypsin and D-PBS were purchased from Life Technologies, Grand Island, N.Y., USA. Odyssey blocking buffer, 800CW goat anti-rabbit IgG (H+L) antibody, and Licor Odyssey infrared scanner were purchased from Licor Biosciences, Lincoln, Nebr., USA. Mono-methyl arginine antibody was purchased from Cell Signaling Technology, Danvers, Mass., USA. Methanol was purchased from VWR, Franklin, Mass., USA. 10% Tween 20 was purchased from KPL, Inc., Gaithersburg, Md., USA. DRAQ5 was purchased from Biostatus Limited, Leicestershire, UK. RKO adherent cells were maintained in growth medium (DMEM/Glutamax medium supplemented with 10% v/v heat inactivated fetal bovine serum and 100 units/mL penicillin-streptomycin) and cultured at 37° C. under 5% CO2. Cell Treatment, in Cell Western (ICW) for Detection of Mono-Methyl Arginine and DNA Content. RKO cells were seeded in assay medium at a concentration of 20,000 cells per mL to a poly-D-lysine coated 384 well culture plate (BD Biosciences 356697) with 50 μL per well. Compound (100 nL) from a 96-well source plate was added directly to 384 well cell plate. Plates were incubated at 37° C., 5% CO2 for 72 hours. After three days of incubation, plates were brought to room temperature outside of the incubator for ten minutes and blotted on paper towels to remove cell media. 50 μL of ice cold 100% methanol was added directly to each well and incubated for 30 min at room temperature. After 30 min, plates were transferred to a Biotek EL406 plate washer and washed 2 times with 100 μL per well of wash buffer (1×PBS). Next 60 μL per well of Odyssey blocking buffer (Odyssey Buffer with 0.1% Tween 20 (v/v)) were added to each plate and incubated 1 hour at room temperature. Blocking buffer was removed and 20 μL per well of primary antibody was added (mono-methyl arginine diluted 1:200 in Odyssey buffer with 0.1% Tween 20 (v/v)) and plates were incubated overnight (16 hours) at 4° C. Plates were washed 5 times with 100 μL per well of wash buffer. Next 20 μL per well of secondary antibody was added (1:200 800CW goat anti-rabbit IgG (H+L) antibody, 1:1000 DRAQ5 (Biostatus limited) in Odyssey buffer with 0.1% Tween 20 (v/v)) and incubated for 1 hour at room temperature. The plates were washed 5 times with 100 μL per well wash buffer then 2 times with 100 μL per well of water. Plates were allowed to dry at room temperature then imaged on the Licor Odyssey machine which measures integrated intensity at 700 nm and 800 nm wavelengths. Both 700 and 800 channels were scanned. […] Each plate included fourteen control wells of DMSO only treatment (minimum activation) as well as fourteen control wells for maximum activation treated with 20 μM of a reference compound. The average of the ratio values for each control type was calculated and used to determine the percent activation for each test well in the plate. Reference compound was serially diluted three-fold in DMSO for a total of nine test concentrations, beginning at 20 μM. Percent activation was determined and EC30 curves were generated using triplicate wells per concentration of compound.

T1 sequence (Q99873 whole entry): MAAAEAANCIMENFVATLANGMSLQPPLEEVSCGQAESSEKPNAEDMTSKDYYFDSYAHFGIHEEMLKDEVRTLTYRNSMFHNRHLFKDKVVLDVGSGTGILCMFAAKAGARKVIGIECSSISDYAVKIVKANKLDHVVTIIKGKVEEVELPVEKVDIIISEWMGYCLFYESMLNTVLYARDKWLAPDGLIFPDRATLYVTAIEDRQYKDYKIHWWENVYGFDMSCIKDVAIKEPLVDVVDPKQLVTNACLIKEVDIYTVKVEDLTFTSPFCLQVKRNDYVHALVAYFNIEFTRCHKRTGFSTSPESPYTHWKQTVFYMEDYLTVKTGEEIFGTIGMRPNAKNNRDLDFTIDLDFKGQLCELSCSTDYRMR

Row | PRMT1 RGG ICW EC30 [nM] | Structure (SMILES)
1 | >5000 | CC[C@]12CC[C@](CC)(C[C@@H](c3n[nH]cc3CN(C)CCNC)C1)O2 [compound 38, N1-((3-((1R,3s,5S)-1,5-diethyl-8-oxabicyclo[3.2.1]octan-3-yl)-1H-pyrazol-4-yl)methyl)-N1,N2-dimethylethane-1,2-diamine]
2 | 321.2 | CNCCN(C)Cc1ccnn1[C@H]1CC[C@]2(CC1)CC(C)(C)CO2 [compound 50, N1-((1-((5r,8r)-3,3-dimethyl-1-oxaspiro[4.5]decan-8-yl)-1H-pyrazol-5-yl)methyl)-N1,N2-dimethylethane-1,2-diamine]
3 | 373.6 | Cc1[nH]nc([C@H]2CC[C@]3(CC2)CC(C)(C)CO3)c1CN(C)CCN [compound 52, N1-((3-((5r,8r)-3,3-dimethyl-1-oxaspiro[4.5]decan-8-yl)-5-methyl-1H-pyrazol-4-yl)methyl)-N1-methylethane-1,2-diamine]
4 | 40.32 | CNCCN(C)Cc1c(C)[nH]nc1[C@H]1CC[C@@]2(CC1)CC(C)(C)CO2 [compound 57]
5 | 83.34 | CNCCN(C)Cc1c(C)[nH]nc1[C@H]1CC[C@]2(CC1)CC(C)(C)CO2 [compound 58]
6 | 193.1 | Cc1[nH]nc(C2CCC3(CC2)CC(C)(C)CO3)c1CN(C)CCN (stereo not shown) [compound 59]
7 | 6.96 | CNCCN(C)Cc1scnc1[C@H]1CC[C@@]2(CC1)CC(C)(C)CO2 [compound 62]
8 | 119 | CNCCN(C)Cc1nn(C)nc1[C@H]1CC[C@@]2(CC1)CC(C)(C)CO2 [compound 64]
9 | 33.9 | CNCCN(C)Cc1nn[nH]c1[C@H]1CC[C@@]2(CC1)CC(C)(C)CO2 [compound 67]
10 | 389.4 | CNCCN(C)Cc1cncn1[C@H]1CC[C@@]2(CC1)CC(C)(C)CO2 [compound 76]
11 | 53.11 | CNCCN(C)Cc1nc(C)sc1[C@H]1CC[C@@]2(CC1)CC(C)(C)CO2 [compound 77]
12 | 29.59 | CNCCN(C)Cc1sc(C)nc1[C@H]1CC[C@@]2(CC1)CC(C)(C)CO2 [compound 78]
13 | 61.59 | CN(CCN)Cc1nn(C)cc1[C@H]1CC[C@@]2(CC1)CC(C)(C)CO2 [compound 80]
14 | 95.94 | CNCCN(C)Cc1nn(C)cc1[C@H]1CC[C@@]2(CC1)CC(C)(C)CO2 [compound 81]
15 | 57.96 | CNCCN(C)Cc1ncsc1[C@H]1CC[C@@]2(CC1)CC(C)(C)CO2 [compound 83]
16 | 54.69 | CNCCN(C)Cc1scnc1[C@H]1CC[C@]2(CC1)CC(C)(C)CO2 [compound 84]
17 | 443.6 | CNCCN(C)Cc1nn(C)nc1C1CCC2(CC1)CC(C)(C)CO2 (stereo not shown) [compound 86]

Row | PRMT1 RGG ICW EC30 [nM] | Structure (SMILES)
18 | 760.4 | CNCCN(C)Cc1nn[nH]c1[C@H]1CC[C@]2(CC1)CC(C)(C)CO2 [compound 89]
19 | >10000 | CNCCN(C)Cc1c(Cl)ncn1[C@H]1CC[C@]2(CC1)CC(C)(C)CO2 [compound 97]
20 | 95.53 | CNCCN(C)Cc1nc(C)sc1[C@H]1CC[C@]2(CC1)CC(C)(C)CO2 [compound 99]
21 | 75.86 | CNCCN(C)Cc1sc(C)nc1[C@H]1CC[C@]2(CC1)CC(C)(C)CO2 [compound 100]
22 | 446.7 | CN(CCN)Cc1nn(C)cc1[C@H]1CC[C@]2(CC1)CC(C)(C)CO2 [compound 102]
23 | 597.4 | CNCCN(C)Cc1nn(C)cc1[C@H]1CC[C@]2(CC1)CC(C)(C)CO2 [compound 103]
24 | 45.27 | CN(CCN)Cc1c[nH]nc1[C@H]1CC[C@]2(CC1)CC(C)(C)CO2 [compound 106]
25 | >10000 | CNCCN(C)Cc1c(C)noc1[C@H]1CC[C@]2(CC1)CC(C)(C)CO2 [compound 114]
26 | 863.2 | CNCCN(C)Cc1nocc1[C@H]1CC[C@@]2(CC1)CC(C)(C)CO2 [compound 117]
27 | 117.5 | CCOCC1(COCC)CCC(c2n[nH]cc2CN(C)CCN(C)C)CC1 [compound 121]
28 | 22.11 | CCOCC1(COCC)CCC(c2nn(C)cc2CN(C)CCNC)CC1 [compound 122]
29 | 17.8 | CCOCC1(COCC)CCC(c2n[nH]cc2CN(C)CCN)CC1 [compound 123]
30 | 55.87 | CCOCC1(COCC)CCC(c2nn(C)cc2CN(C)CCN)CC1 [compound 124]
31 | 14.88 | CNCCN(C)Cc1c[nH]nc1C1CCC2(CC1)CC(C)(C)OC2=O (stereo not shown) [compound 125]
32 | 15.26 | CNCCN(C)Cc1c[nH]nc1[C@H]1CC[C@@]2(CC1)COC(C)(C)C2 [compound 126, N1-((3-((5r,8r)-3,3-dimethyl-2-oxaspiro[4.5]decan-8-yl)-1H-pyrazol-4-yl)methyl)-N1,N2-dimethylethane-1,2-diamine]
33 | 8.48 | CNCCN(C)Cc1c[nH]nc1[C@H]1CC[C@]2(CCCCO2)CC1 [compound 127, methyl([2-[methyl([3-[(6s,9r)-1-oxaspiro[5.5]undecan-9-yl]-1H-pyrazol-4-yl]methyl)amino]ethyl])amine bistrifluoroacetic acid salt]

Row | Structure (SMILES) | PRMT1 RGG ICW EC30 [nM]
34 | CCOCC1(COCC)CC=C(c2n[nH]cc2CN(C)CCNC)CC1 [compound 60] | 44.67
35 | CN(CCN)Cc1c[nH]nc1[C@H]1CC[C@@]2(CC1)CC(C)(C)CO2 [compound 105] | 12.12
36 | CNCCN(C)Cc1n[nH]cc1[C@H]1CC[C@@]2(CC1)CC(C)(C)CO2 [compound 115] | 20.34
37 | CNCCN(C)Cc1n[nH]cc1[C@H]1CC[C@]2(CC1)CC(C)(C)CO2 [compound 116] | 154.5
